The supplement of paper PMC10307832

Tests used:
Assay in all cases: relative viability (nuclei count vs DMSO), 5 days (fraction); higher = more cells survive
[1] = compound: Cc1ccc(-n2nc(C(C)(C)C)cc2NC(=O)Nc2ccc(OCCN3CCOCC3)c3ccccc23)cc1 [Doramapimod] + O=C(c1cc(Cc2n[nH]c(=O)c3ccccc23)ccc1F)N1CCN(C(=O)C2CC2)CC1 [Olaparib] (partner 8 µM)
Procedure, shortened: (§1)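 Each reported value is a median over duplicate plates. It expresses relative viability: treated-well nuclei count divided by vehicle-well nuclei count. Lung cancer cell lines in 1536-well plates were dosed by pin tool a day after seeding, alone with one drug or with a fixed anchor-drug dose plus five library-drug doses (not always all listed) in √10 steps, and nuclei were counted after 5 days.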

[2] = compound: Cc1ccc(-n2nc(C(C)(C)C)cc2NC(=O)Nc2ccc(OCCN3CCOCC3)c3ccccc23)cc1 [Doramapimod] + CS(=O)(=O)CCNCc1ccc(-c2ccc3ncnc(Nc4ccc(OCc5cccc(F)c5)c(Cl)c4)c3c2)o1 [Lapatinib] (partner 2 µM)
Procedure, shortened: as §1

[3] = compound: C1=CC=C2C(=C1)C=CC(=C2SSC3=C(C=CC4=CC=CC=C43)O)O [IPA-3] + CS(=O)(=O)N1CCN(Cc2cc3nc(-c4cccc5[nH]ncc45)nc(N4CCOCC4)c3s2)CC1 [Pictilisib] (partner 1 µM)
Procedure, shortened: as §1

[4] = compound: C1=CC=C2C(=C1)C=CC(=C2SSC3=C(C=CC4=CC=CC=C43)O)O [IPA-3] + CC(=O)c1c(C)c2cnc(Nc3ccc(N4CCNCC4)cn3)nc2n(C2CCCC2)c1=O [Palbociclib] (partner 0.5 µM)
Procedure, shortened: as §1

Cell Line	relative viability ([1]; first compound 0.02 µM)	relative viability ([1]; first compound 0.06325 µM)	relative viability ([1]; first compound 0.2 µM)	relative viability ([1]; first compound 0.6325 µM)	relative viability ([1]; first compound 2 µM)	relative viability ([2]; first compound 0.02 µM)	relative viability ([2]; first compound 0.06325 µM)	relative viability ([2]; first compound 0.2 µM)	relative viability ([2]; first compound 0.6325 µM)	relative viability ([2]; first compound 2 µM)	relative viability ([3]; first compound 0.2 µM)	relative viability ([3]; first compound 0.6325 µM)	relative viability ([3]; first compound 2 µM)	relative viability ([3]; first compound 6.325 µM)	relative viability ([3]; first compound 20 µM)	relative viability ([4]; first compound 0.2 µM)	relative viability ([4]; first compound 0.6325 µM)	relative viability ([4]; first compound 2 µM)	relative viability ([4]; first compound 6.325 µM)	relative viability ([4]; first compound 20 µM)
NCI-H1944	0.394	0.434	0.438	0.409	0.371	0.761	0.823	0.722	0.963	0.585	0.351	0.344	0.371	0.38	0.345	0.333	0.326	0.389	0.384	0.334
NCI-H2023	0.546	0.534	0.491	0.563	0.456	0.79	0.636	0.78	0.105	0.807	0.275	0.243	0.248	0.301	0.258	0.441	0.347	0.414	0.442	0.41
NCI-H1755	0.865	0.85	0.847	0.811	0.829	0.6	1.04	1.05	1.08	1.03	0.455	0.358	0.397	0.345	0.536	0.464	0.488	0.422	0.43	0.44
NCI-H23	0.397	0.352	0.417	0.335	0.311	0.962	0.998	1.11	0.761	1.12	0.672	0.531	0.473	0.509	0.611	0.477	0.4	0.486	0.486	0.542
ABC-1	0.851	0.68	0.698	0.983	0.935	1.03	1.15	1.17	1.54	1.35	0.863	0.698	–	0.803	0.75	0.733	0.81	0.392	0.748	0.851
201T	0.869	1.01	0.848	0.96	0.839	1.05	1.11	0.955	1.11	0.971	0.748	0.684	0.671	0.714	0.809	0.363	0.38	0.391	0.342	0.388
NCI-H1734	0.572	0.595	0.587	0.573	0.497	1.27	0.963	0.932	1.04	0.928	0.469	0.473	0.441	0.494	0.435	0.366	0.19	0.359	0.345	0.361
NCI-H520	0.336	0.359	0.354	0.364	0.305	0.828	0.865	0.945	0.807	0.629	0.3	0.277	0.268	0.246	0.202	0.229	0.206	–	0.283	0.186
